Experimental data from ChEMBL document CHEMBL4265909, “Synthesis and biological evaluation of novel 5,6-dihydropyrimido[4,5-f]quinazoline derivatives as potent CDK2 inhibitors” (Bioorg Med Chem Lett, 2018).

Experiments:
MCF7 = assay: Antiproliferative activity against human MCF7 cells after 24 hrs by MTT assay; type: functional, cell-based; conditions: MCF7, 24 h
HCT-116 = assay: Antiproliferative activity against human HCT116 cells after 24 hrs by MTT assay; type: functional, cell-based; conditions: HCT-116, 24 h
CDK2/Cyclin A2 = CDK2/Cyclin A2 (Homo sapiens, UniProt P24941); assay: Inhibition of full-length human CDK2/N-terminal GST-tagged Cyclin A2 (1 to 432 residues) expressed in Baculovirus expression system using FAM-P8/P18 as substrate measured after 40 mins
[1] = molecular target: Cyclin-dependent kinase 1 (Homo sapiens, UniProt P06493); assay: Inhibition of CDK1 (unknown origin)
[2] = molecular target: Cyclin-dependent kinase 4 (Homo sapiens, UniProt P11802); assay: Inhibition of CDK4 (unknown origin)
[3] = molecular target: Cyclin-dependent kinase 5 (Homo sapiens, UniProt Q00535); assay: Inhibition of CDK5 (unknown origin)
[4] = molecular target: Cyclin-dependent kinase 6 (Homo sapiens, UniProt Q00534); assay: Inhibition of CDK6 (unknown origin)
[5] = molecular target: Cyclin-dependent kinase 7 (Homo sapiens, UniProt P50613); assay: Inhibition of CDK7 (unknown origin)
Sequence of Cyclin-dependent kinase 7 (P50613 whole entry): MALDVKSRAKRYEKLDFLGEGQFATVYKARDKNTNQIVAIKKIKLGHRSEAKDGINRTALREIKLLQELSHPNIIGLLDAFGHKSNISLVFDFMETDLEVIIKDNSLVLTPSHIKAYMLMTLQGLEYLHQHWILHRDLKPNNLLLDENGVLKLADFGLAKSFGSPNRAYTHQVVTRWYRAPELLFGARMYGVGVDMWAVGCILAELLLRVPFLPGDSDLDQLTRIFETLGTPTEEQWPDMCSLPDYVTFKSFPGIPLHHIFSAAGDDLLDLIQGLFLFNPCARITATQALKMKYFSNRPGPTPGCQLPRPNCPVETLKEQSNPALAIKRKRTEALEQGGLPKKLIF

Sequence of Cyclin-dependent kinase 6 (Q00534 whole entry): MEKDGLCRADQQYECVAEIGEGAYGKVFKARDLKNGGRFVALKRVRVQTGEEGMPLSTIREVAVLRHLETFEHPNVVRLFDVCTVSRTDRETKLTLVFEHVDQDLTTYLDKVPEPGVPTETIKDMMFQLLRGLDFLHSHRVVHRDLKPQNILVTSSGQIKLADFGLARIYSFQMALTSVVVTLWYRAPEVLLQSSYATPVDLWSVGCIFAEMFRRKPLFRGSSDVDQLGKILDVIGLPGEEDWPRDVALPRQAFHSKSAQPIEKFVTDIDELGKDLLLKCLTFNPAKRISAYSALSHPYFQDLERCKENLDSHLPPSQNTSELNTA
Sequence of Cyclin-dependent kinase 1 (P06493 whole entry): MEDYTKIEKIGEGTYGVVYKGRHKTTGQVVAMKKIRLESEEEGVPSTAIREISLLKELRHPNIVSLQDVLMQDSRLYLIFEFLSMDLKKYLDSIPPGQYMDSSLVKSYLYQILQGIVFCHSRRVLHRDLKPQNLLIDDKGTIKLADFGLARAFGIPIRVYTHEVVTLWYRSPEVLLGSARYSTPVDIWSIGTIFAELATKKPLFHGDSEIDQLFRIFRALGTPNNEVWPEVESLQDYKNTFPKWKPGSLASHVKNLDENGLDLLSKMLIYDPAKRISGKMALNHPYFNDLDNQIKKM
Sequence of Cyclin-dependent kinase 5 (Q00535 whole entry): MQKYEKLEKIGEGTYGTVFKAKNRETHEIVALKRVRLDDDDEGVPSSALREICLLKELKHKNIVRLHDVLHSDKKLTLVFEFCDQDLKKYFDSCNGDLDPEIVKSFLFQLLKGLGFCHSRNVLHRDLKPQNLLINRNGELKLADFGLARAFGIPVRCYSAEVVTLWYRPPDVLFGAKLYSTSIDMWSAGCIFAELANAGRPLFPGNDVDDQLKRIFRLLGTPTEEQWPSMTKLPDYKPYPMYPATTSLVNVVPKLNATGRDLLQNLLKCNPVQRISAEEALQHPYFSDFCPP
Sequence of Cyclin-dependent kinase 4 (P11802 whole entry): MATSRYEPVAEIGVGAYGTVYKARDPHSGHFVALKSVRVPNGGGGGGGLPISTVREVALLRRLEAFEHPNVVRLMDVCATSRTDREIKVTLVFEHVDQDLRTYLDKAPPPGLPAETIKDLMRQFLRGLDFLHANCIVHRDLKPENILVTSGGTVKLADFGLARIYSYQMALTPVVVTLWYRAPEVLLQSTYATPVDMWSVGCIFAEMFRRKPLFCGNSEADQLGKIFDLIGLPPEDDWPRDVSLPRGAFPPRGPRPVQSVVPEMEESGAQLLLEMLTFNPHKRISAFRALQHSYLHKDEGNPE

Compound	IC50 (MCF7) [µM]	IC50 (HCT-116) [µM]	IC50 (CDK2/Cyclin A2) [µM]	IC50 [1] [µM]	IC50 [2] [µM]	IC50 [3] [µM]	IC50 [4] [µM]	IC50 [5] [µM]
CSc1ncc2c(n1)CCc1cnc(Nc3ccc(N)cc3)nc1-2	1.4	1.6	0.16	–	–	–	–	–
CSc1ncc2c(n1)CCc1cnc(Nc3ccc(C(=O)N4CCNCC4)cc3)nc1-2	1.5	1.3	0.16	–	–	–	–	–
CSc1ncc2c(n1)CCc1cnc(Nc3ccc(C(=O)N(C)C)cc3)nc1-2	3.7	5.3	0.53	–	–	–	–	–
CSc1ncc2c(n1)CCc1cnc(Nc3ccc(C(=O)N4CCOCC4)cc3)nc1-2	2.1	3.2	0.19	–	–	–	–	–
CSc1ncc2c(n1)CCc1cnc(Nc3ccc(C(N)=O)cc3)nc1-2	1.3	0.9	0.11	–	–	–	–	–
Nc1ncc2c(n1)-c1cnc(Nc3ccccc3)nc1CC2	27.6	25.3	1.7	–	–	–	–	–
CSc1ncc2c(n1)CCc1cnc(Nc3ccc(F)cc3)nc1-2	8.4	7.9	0.35	–	–	–	–	–
CSc1ncc2c(n1)CCc1cnc(Nc3ccccc3)nc1-2	15.6	12.7	0.41	–	–	–	–	–
CN1CCN(C(=O)c2ccc(Nc3ncc4c(n3)CCc3cnc(N)nc3-4)cc2)CC1	> 30	> 30	5.9	–	–	–	–	–
CCOC(=O)c1ccc(Nc2ncc3c(n2)CCc2cnc(N)nc2-3)cc1	> 30	> 30	–	–	–	–	–	–
CSc1ncc2c(n1)CCc1cnc(Nc3ccc(C(=O)NC4CCCC4)cc3)nc1-2	6.5	9.1	1.26	–	–	–	–	–
Nc1ncc2c(n1)-c1cnc(Nc3ccc(Cl)cc3)nc1CC2	> 30	> 30	1.85	–	–	–	–	–
CSc1ncc2c(n1)CCc1cnc(Nc3ccc(C(=O)N(C)CCN(C)C)cc3)nc1-2	1.1	1.4	0.09	1.25	> 5	0.68	> 5	3.6
CCOC(=O)c1ccc(Nc2ncc3c(n2)-c2cnc(SC)nc2CC3)cc1	25.4	14.3	1.25	–	–	–	–	–
CSc1ncc2c(n1)CCc1cnc(Nc3ccc(C(=O)N4CCN(C)CC4)cc3)nc1-2	2.5	3.8	0.18	–	–	–	–	–
c1ccc(Nc2ncc3c(n2)CCc2cnc(Nc4ccccc4)nc2-3)cc1	20.6	18.1	1.54	–	–	–	–	–
Clc1ccc(Nc2ncc3c(n2)-c2cnc(Nc4ccccc4)nc2CC3)cc1	23.5	26.3	2.03	–	–	–	–	–
CN(C)CCN(C)C(=O)c1ccc(Nc2ncc3c(n2)CCc2cnc(N)nc2-3)cc1	> 30	> 30	3.2	–	–	–	–	–
Nc1ncc2c(n1)-c1cnc(Nc3ccc(C(=O)N4CCOCC4)cc3)nc1CC2	> 30	> 30	–	–	–	–	–	–
CC(C)(C)c1cnc(CSc2cnc(NC(=O)C3CCNCC3)s2)o1 [BMS-387032]	1	0.7	–	–	–	–	–	–
CSc1ncc2c(n1)CCc1cnc(Nc3ccc(Cl)cc3)nc1-2	7	8.3	0.38	–	–	–	–	–
CSc1ncc2c(n1)CCc1cnc(Nc3ccc(C(=O)N4CCN(C(=O)OC(C)(C)C)CC4)cc3)nc1-2	19.4	17.2	3.7	–	–	–	–	–
CSc1ncc2c(n1)CCc1cnc(Nc3ccc(C(=O)O)cc3)nc1-2	17.8	12.8	0.98	–	–	–	–	–
